The record followed here is patent publication US10947199B2, “Spiro and cyclic bis-benzylidene proteasome inhibitor for the treatment of cancer, diabetes and neurological disorders” (UP THERAPEUTICS, INC., priority 2017, dated 2021).

Experiment [1] deals with NFκB reporter in 293 cells. Description: NFκB reporter assay in 293 cells stimulated with TNF-a. The experiment is classed as cell-based. The following applies: 293 cells carrying NFκB reporter construct. From the text:
(§1) NFκB is constitutively activated in many cancers including high grade cervical intraepithelial neoplasia (CIN) and cervical cancer.

Experiment [2] concerns proteasome function (4Ub-FL reporter) in 293TT cells. Nature of the experiment: 4Ub-FL reporter assay of proteasome function in live cells. The experiment is classed as cell-based. The conditions noted are these: 293TT cells expressing 4Ub-FL. From the text:
To measure proteasome function in live cells, we utilized an engineered ubiquitin-firefly (4Ub-FL) reporter in which four copies of mutant ubiquitin (ubiquitin G76V) gene are fused to the N-terminus of the firefly luciferase (FL) gene. The results of this experiment, shown in FIG. 1, reveal that the 4Ub-FL reporter protein is rapidly degraded by the proteasome.
To measure proteasome function in live cells, we utilized an engineered ubiquitin-firefly (4Ub-FL) reporter in which four copies of mutant ubiquitin (ubiquitin G76V) gene are fused to the N-terminus of the firefly luciferase (FL) gene. The 4Ub-FL reporter protein is rapidly degraded by the proteasome (FIG. 6). […] Treatment of Up109 produced a greater increase in the 4Ub-FL bioluminescence in a dose dependent manner.

The subject of another experiment is MM.1S. Nature of the experiment: MTT cell viability assay, MM.1S. The following applies: Multiple Myeloma, 24 or 48 or 72 hours. The experiment is classed as cell-based. The procedure:
(§2) Briefly cancer cells incubated with Up compounds for the period of 24 or 48 or 72 hours and the cell viability was measured using MTT assay. IC50 of compounds listed in Table1.
In general terms: Formazan colour is commonly taken as a measure of viable cells.

Another experiment has as its system HS578T. Description: MTT cell viability assay, HS578T. The conditions noted are these: Triple Negative Breast Cancer, 24 or 48 or 72 hours. The experiment is classed as cell-based. The protocol:
as §2

Experiment [3] addresses T1, RPN13 (Homo sapiens, UniProt Q16186).
T1 construct: HeLa cell lysate was pretreated with Up109 or Up117; endogenous in cells; host or cells: HeLa cell lysate
Nature of the experiment: RA190B probe competition assay, HeLa cell lysate. The experiment is classed as binding. The following applies: HeLa cell lysate pretreated with compound. The protocol: To identify the cellular target, a competition assay was performed using RA190B probe. […] We used RA190B as a probe to determine the Up compound binding to RPN13. HeLa cell lysate was pretreated with Up109 or Up117 and then subsequently treated with RA190B. Lysate was denatured under reduced conditions and proteins were separated on a gel and probed with HRPStreptavidin.

The target in experiment [4] is T1, RPN13. Description: RA190B probe competition assay, OV2008 cell lysate. The experiment is classed as binding. The conditions noted are these: compound 25 μM, RA190B 5 μM. The procedure: To identify the cellular target, a competition assay was performed using RA190B probe. […] We used RA190B as a probe to determine the Up compounds binding to RPN13. OV2008 cell lysate was pretreated with Up compounds (25 μM) and then subsequently treated with RA190B (5 μM). Lysate was denatured under reduced conditions and proteins were separated on a gel and probed with HRP Streptavidin.

The next experiment has as its system HCC1806. Description: MTT cell viability assay, HCC1806. The experiment is classed as cell-based. The following applies: HCC1806, Triple Negative Breast Cancer, 24 or 48 or 72 hours. The protocol: as §2
For the next experiment, the system named is ES2. Nature of the experiment: MTT cell viability assay, ES2. The experiment is classed as cell-based, human. The conditions noted are these: ES2, Ovarian Cancer, 24 or 48 or 72 hours. The procedure:
as §2

For another experiment, the system named is MDA-MB-231. Description: MTT cell viability assay, MDA-MB-231. The conditions noted are these: MDA-MB-231, Triple Negative Breast Cancer, 24 or 48 or 72 hours. The experiment is classed as cell-based. The procedure: as §2
In the next experiment the test system is OVCAR5. Description: MTT cell viability assay, OVCAR5. The following applies: OVCAR5, Ovarian Cancer, 24 or 48 or 72 hours. The experiment is classed as cell-based. The procedure: as §2
The subject of another experiment is SKOV3. Nature of the experiment: MTT cell viability assay, SKOV3. The experiment is classed as cell-based. The conditions noted are these: SKOV3, Ovarian Cancer, 24 or 48 or 72 hours. The procedure: as §2
For another experiment, the system named is OV2008. Description: MTT cell viability assay, OV2008. The experiment is classed as cell-based. The conditions noted are these: OV2008, Ovarian Cancer, 24 or 48 or 72 hours. The procedure:
as §2

Another experiment deals with A2780. Nature of the experiment: MTT cell viability assay, A2780. The experiment is classed as cell-based. The following applies: A2780, Ovarian Cancer, 24 or 48 or 72 hours. The procedure: as §2
A further experiment relates to A2780 cancer cells. Nature of the experiment: Colony formation, A2780. The experiment is classed as cell-based. The conditions noted are these: corresponding to IC50 values.
A further experiment has as its system RPMI8226-R. Description: MTT cell viability assay, RPMI8226-R. The following applies: Multiple Myeloma, 24 or 48 or 72 hours. The experiment is classed as cell-based. The protocol:
as §2

The subject of a further experiment is OV2008 cancer cells. Nature of the experiment: Colony formation, OV2008. The experiment is classed as cell-based. The following applies: corresponding to IC50 values.
The subject of experiment [5] is HFF(primary human foreskin fibroblast). Nature of the experiment: MTT cell viability assay, HFF. The experiment is classed as cell-based. The following applies: Normal Cell line, 24 or 48 or 72 hours. The protocol:
as §2

In another experiment the test system is LNCaP. Description: MTT cell viability assay, LNCaP. The experiment is classed as cell-based. The following applies: Prostate Cancer, 24 or 48 or 72 hours. The procedure:
as §2

In another experiment the test system is IkB-a in HeLa cells. Nature of the experiment: IkB-a stabilization in HeLa cells with TNF-a. The experiment is classed as cell-based. The conditions noted are these: in the presence of TNF-a.
Text: as §1

Another experiment has as its system HeLa. Nature of the experiment: MTT cell viability assay, HeLa. The experiment is classed as cell-based. The conditions noted are these: Cervical Cancer, 24 or 48 or 72 hours. The procedure: as §2
The subject of the next experiment is HepG2. Nature of the experiment: MTT cell viability assay, HepG2. The conditions noted are these: HepG2, Liver Cancer, 24 or 48 or 72 hours. The experiment is classed as cell-based. The protocol:
as §2

Experiment [6] concerns K48-linked polyubiquitinated proteins in HeLa cells. Description: anti-K48-linked ubiquitin immunoblot in HeLa cells. The following applies: 4 hr treatment. The experiment is classed as cell-based. From the text:
Accumulation of poly ubiquitinated proteins is a general phenomenon of proteasome inhibition. We examined the impact of these compounds on the levels of polyubiquitinated proteins in HeLa cells by anti-K48-linked ubiquitin immunoblot analysis.
For orientation: Immunoblotting shows a protein as a band on a membrane.

Another experiment concerns RPMI8226. Nature of the experiment: MTT cell viability assay, RPMI8226. The experiment is classed as cell-based. The following applies: RPMI8226, Multiple Myeloma, 24 or 48 or 72 hours. The protocol: as §2
Another experiment deals with DU145. Nature of the experiment: MTT cell viability assay, DU145. The experiment is classed as cell-based. The conditions noted are these: DU145, Prostate Cancer, 24 or 48 or 72 hours. The protocol:
as §2

For a further experiment, the system named is SKOV3-TR. Description: MTT cell viability assay, SKOV3-TR. The experiment is classed as cell-based. The following applies: for difference in activity between SKOV3 and its taxol resistant line (SKOV3-TR): SKOV3 vs SKOV3-TR. The protocol: as §2
A further experiment concerns PC-3. Nature of the experiment: MTT cell viability assay, PC-3. The following applies: PC-3, Prostate Cancer, 24 or 48 or 72 hours. The experiment is classed as cell-based. The procedure:
as §2

T1 sequence (Q16186 whole entry): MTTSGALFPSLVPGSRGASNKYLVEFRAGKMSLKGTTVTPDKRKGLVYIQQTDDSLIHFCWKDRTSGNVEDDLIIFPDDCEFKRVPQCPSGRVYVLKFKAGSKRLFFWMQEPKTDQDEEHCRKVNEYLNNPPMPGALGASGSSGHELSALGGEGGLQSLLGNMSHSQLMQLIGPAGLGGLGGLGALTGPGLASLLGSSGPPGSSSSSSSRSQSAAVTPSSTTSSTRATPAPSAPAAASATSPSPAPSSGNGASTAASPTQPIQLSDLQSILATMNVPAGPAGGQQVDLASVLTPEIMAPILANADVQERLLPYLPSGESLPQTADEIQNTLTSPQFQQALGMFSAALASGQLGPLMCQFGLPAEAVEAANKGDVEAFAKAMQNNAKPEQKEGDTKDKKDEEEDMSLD

For `Cl.N[C@@H](Cc1ccccc1)C(=O)N1C/C(=C/c2ccc(Cl)c(Cl)c2)C(=O)/C(=C\c2ccc(Cl)c(Cl)c2)C1` [RA190, reference compound], in [1], the “NFκB reporter activity after stimulation with TNF-a” value is given as “significant dose-dependent decrease”. In experiment [2], the “increase in 4Ub-FL bioluminescence compared to before treatment” value is given as “fivefold increase”.
Usually IC50 stands for the concentration needed to halve the response being measured. A low value points to greater potency. Consider `O=C(CCl)NC(Cc1ccccc1)C(=O)N1CCC2(CC1)C(=Cc1ccc([N+](=O)[O-])cc1)C(=O)C2=Cc1ccc([N+](=O)[O-])cc1` (stereo not drawn) [Up117], for which the IC50 in the experiment with MM.1S was 42 nM; with HS578T, 32 nM; in the experiment on HCC1806 it was 71 nM; with ES2, 41 nM; in the experiment on MDA-MB-231 it was 56 nM; with OVCAR5, 37 nM. Further, the 50% inhibitory concentration (IC50) was 157 nM in the experiment with SKOV3; 47 nM with OV2008; 22 nM with A2780; 78 nM in the experiment on RPMI8226-R; greater than 1250 nM in [5]; 87 nM in the experiment on LNCaP. In addition, the IC50 in the experiment with HeLa came out at 89 nM; with HepG2, 447 nM; in the experiment with RPMI8226, 140 nM; in the experiment on DU145, 130 nM; in the experiment on SKOV3-TR (SKOV3-TR, Ovarian Cancer (taxol resistant), MTT, 24 or 48 or 72 hours), 202 nM; in the experiment on PC-3 it was 74 nM. The figures for the “competition with RA190B for binding to RPN13” value on RPN13 [3] and at RPN13 [4] were “disappearance of RA190B labeling” and “Disappearance of RA190B labeling”, respectively. Further, the “NFκB reporter activity after stimulation with TNF-a” value in [1] is reported as “significant dose-dependent decrease”. In addition, the colony formation result with A2780 cancer cells and with OV2008 cancer cells was “significantly blocked colony formation” in each case. For the same compound, in the experiment with IkB-a in HeLa cells, the “stabilization of IkB-a” value is given as “Stabilization of IkB-a was observed”. For the same compound, the “4Ub-FL reporter stabilization / bioluminescence increase (qualitative)” value in [2] (dose dependent) was “greater increase in the 4Ub-FL bioluminescence than RA190”. For the same compound, the “levels of K48-linked polyubiquitinated proteins” value in experiment [6] is “dramatically increased”. The “difference in activity between SKOV3 and its taxol resistant line (SKOV3-TR)” value in the experiment with SKOV3-TR was “similarly active”.
As to `CC(=O)O[C@H]1C(=O)[C@@]2(C)[C@H]([C@H](OC(=O)c3ccccc3)[C@]3(O)C[C@H](OC(=O)[C@H](O)[C@@H](NC(=O)c4ccccc4)c4ccccc4)C(C)=C1C3(C)C)[C@]1(OC(C)=O)CO[C@@H]1C[C@@H]2O` [Taxol, reference compound], in the experiment with SKOV3-TR, the “difference in activity between SKOV3 and its taxol resistant line (SKOV3-TR)” value is 7 fold.
